How the values were obtained:
Drosophila melanogaster = assay: whole plant or invertebrate; format: in vivo; details: for mortality at 0.05 %: read-out: Wirksamkeit in % Substanz allein
Description: Die insektiziden Wirkungen von tertiären heterocyclischen Aminen und die synergistischen Eigenschaften mit dem Phosphorsäureester Dimethoat und dem Carbamat Dimetilan, getestet an Drosophila melanogaster.
Die Versuche wurden in Petrischalen von 10 cm Durchmesser ausgeführt. Es wurden zunächst die gerade noch wirksamen Konzentrationen von Dimethoat und Dimetilan bestimmt. Für Dimethoat wurde 0,005 % und für Dimetilan 0,0001 % als günstige Versuchskonzentration ermittelt. Die Aminkomponente wurde mit 1 ml 0,05%iger Lösung + 1 ml Aceton auf insektizide Wirkung getestet. Zur Bestimmung des Synergismus wurde 1 ml 0,05%ige Aminlösung + 1 ml 0,005.%ige Dimethoatlösung, bzw. + 1 ml 0,0001%ige Dimetilanlösung pro Petrischale eingesetzt. Alle Verdünnungen wurden mit Aceton als Lösungsmittel hergestellt.
In den Petrischalen wurden die Lösungen am Boden gut verteilt und 30 min lang antrocknen lassen. In jede Petrischale wurden 20 mit Kohlendioxid betäubte Drosophila eingezählt. Alle 5 min, insgesamt 12 mal, wurde die Anzahl der toten Drosophila ausgezählt und notiert. Die Zahlen wurden aufsummiert und im Verhältnis zur möglichen Zahl an toten Drosophila in % angegeben, wobei der Tot aller Drosophila innerhalb der ersten 5 min 100 % Wirkung entspricht. Jeder Versuch wurde mit 3 Wiederholungen durchgeführt. In Tabelle 1 sind die Mittelwerte der Ergebnisse zusammengestellt.
Zur Ermittlung des synergistischen Faktors wurden die Einzelwerte pro Zeiteinheit durch die für Dimethoat, bzw. Dimetilan für die jeweilige Zeiteinheit gefundenen Werte dividiert. Die Werte für jede Zeiteinheit wurden summiert und durch die Anzahl der Zeiteinheiten dividiert. Die Versuche wurden bei sonst stets gleichbleibenden Bedingungen bei Temperaturen von 20 - 22°C ausgeführt. Die Kontrollversuche zeigten bei Versuchsabschluß stets 0 % Mortalität. Hat die Substanz selbst eine insektizide Wirkung, so wurden die Wirkungsfaktoren für Dimethoat und Dimetilan nach Abzug des Substanzwertes berechnet und in der Tabelle aufgeführt.
Im Beispiel 1 war das Verhältnis von Insektizid und erfindungsgemäßem Amin 1 : 10 in den Gemischen mit Dimethoat. In der Tabelle 2 sind Verhältnisse von 1 : 1, 1 : 2 und 1 : 0,2 bei Versuchen mit Dimethoat aufgeführt, dabei wurde das Dimethoat immer in einer Konzentation von 0,005 % eingesetzt. Die Tabelle zeigt, daß auch bei diesen Verhältnissen noch eine gute synergistische Wirkung vorhanden ist, und es keineswegs einer großen überdosierung des Amins bedarf.

[1] = tested on: Kornkäfer (sitophilus granarius L); assay: whole plant or invertebrate; format: in vivo; details: for mortality at 1000 µg/mL: read-out: Wirksamkeit in % Substanz allein
Method in brief: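 Acetone solutions (2 ml) were dried as films in 15 cm Petri dishes and 25 grain weevils added per dish, with a filter inserted after 1 h. Dead beetles were counted at 3 h at 19–21 °C, and % mortality and the synergistic factor were derived.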

[2] = 1 ml 0,05%ige amine solution + 1 ml 0,0001%ige Dimetilan solution
[3] = 1 ml 0,05%ige amine solution + 1 ml 0,005 %ige Dimethoat solution (Dimethoat : amine 1 : 10)
[4] = 1 ml 0,05%ige amine solution + 1 ml Aceton per dish, 20 flies, dead counted every 5 min, 12 times, mean values
[5] = amine 0,05 % + Dimethoat 0,005 %, calculated after subtracting the amine's own effect
[6] = amine 1 mg/ml + Ripcord 0,01 mg/ml
[7] = amine 1 mg/ml + Talcord 0,01 mg/ml
[8] = amine 1 mg/ml in Aceton mixed 1 : 1 with Aceton, 2 ml per dish, 25 weevils, dead counted after 3 h
[9] = amine 1 mg/ml mixed 1 : 1 with Ripcord 0,01 mg/ml, 3 h
[10] = amine 1 mg/ml mixed 1 : 1 with Talcord 0,01 mg/ml, 3 h
[11] = amine 0,05 % + Dimetilan 0,0001 %, calculated after subtracting the amine's own effect
[12] = Drosophila melanogaster, 1 ml 0,05%ige amine solution + 1 ml Aceton per dish, 20 flies, dead counted every 5 min, 12 times, mean values
[13] = Sitophilus granarius, amine 1 mg/ml in Aceton mixed 1 : 1 with Aceton, 2 ml per dish, 25 weevils, dead counted after 3 h
[14] = Drosophila melanogaster, amine 0,005 %, read-out: Sub-stanz allein
[15] = amine 0,005 % + Dimethoat 0,005 %, Dimethoat : Amin 1 : 1
[16] = amine 0,005 %, Dimethoat : Amin 1 : 1
[17] = Pyrethroid : Amin 1 : 10, amine 0,1 mg/ml, 180 min
[18] = drosophila melanogaster, in vivo
[19] = sitophilus granarius, in vivo, 3 h

Row | Structure (SMILES) | Wirksamkeit in % Substanz +Dimeti-lan (Drosophila melanogaster; [2]) | Wirksamkeit in % Substanz +Dimethoat (Drosophila melanogaster; [3]) | Wirksamkeit in % Substanz allein (Drosophila melanogaster; [4]) [%] | Faktor der Wirkungssteigerung bei Dime-methoat (Drosophila melanogaster; [5]) | Synergistischer Faktor bei Ripcord [1, 6] | Synergistischer Faktor bei Talcord [1, 7] | Wirksamkeit in % Substanz allein [1, 8] [%] | Wirksamkeit in % Substanz +Ripcord [1, 9] | Wirksamkeit in % Substanz +Talcord [1, 10] | Faktor der Wirkungssteigerung bei Dimi-tilan (Drosophila melanogaster; [11]) | mortality at 1000 µg/mL [1, 13] [%] | also measured
1 | CCOC(=O)CC(C(=O)OCC)N1CCCCC1 (centres unmarked) [N-Piperidino-bernstein-säure-di-ethylester] | 2,3% | 38,8% | 0 | 4,51 | 3,08 | 2,47 | 0 | 97,2% | 24,0% |  |  | 
2 | c1ccc(OCCCN2CCCCC2)cc1 [N-(1-Phenoxi-propyl-(3))-piperidin] | 12,1% | 8,8% | 0 |  | 2,96 | 3,01 | 0 | 93,2% | 29,2% | 4,8 |  | 
3 | CCCCCCCCCCN1CCCCCC1 [N-Decyl-hexamethylenimin] | 68,8% | 65,0% |  | 1,84 | 1,35 |  |  | 93,2% | 62,8% | 7,84 | 69.2 | mortality at 0.05 % (Drosophila melanogaster; [12]): 49.2%
4 | C(=Cc1ccccc1)CN1CCCC1 [1-Cinnamyl-pyrrolidin] | 55,4% | 5,8% |  |  | 3,08 | 3,17 |  | 97,2% | 30,8% | 22,2 | 0 | mortality at 0.05 % (Drosophila melanogaster; [12]): 0%
5 | CCCCCCCCCCN1CCCCC1 [N-1-Decyl-piperidin] |  |  |  |  |  |  |  |  |  |  |  | mortality at 0.005 % (Drosophila melanogaster; [14]): 0%; Substanz + Dime-thoat (Drosophila melanogaster; [15]): 45,4%; Faktor der Wirkungs-steigerung (Drosophila melanogaster; [16]): 5,28; Synergistischer Faktor bei Ripcord ([1]; Pyrethroid : Amin 1 : 10): 3,09; Synergistischer Faktor bei Talcord ([1]; Pyrethroid : Amin 1 : 10): 6,72; % Wirkung Substanz +Ripcord [1, 17]: 97,2%; % Wirkung Substanz +Talcord [1, 17]: 65,2%; mortality at 100 µg/mL ([1]; Sitophilus granarius, 3 h, amine 0,1 mg/ml (as for Pyrethroid : Amin 1 : 10), read-out: % Wirkung Substanz allein): 0%
6 | CCCCOC(CN1CCOCC1)OCCCC [2-N-Morpholino-ethyl-di-butyl-acetal] |  |  |  |  |  |  |  |  |  |  |  | Wirksamkeit in % Substanz +Dimethoat (Drosophila melanogaster; [18]): 17,9%; Wirksamkeit in % Substanz +Dimeti-lan (Drosophila melanogaster; [18]): 3,3%; Wirksamkeit in % Substanz allein (Drosophila melanogaster; [18]): 0,4%; Faktor der Wirkungssteigerung bei Dime-methoat (Drosophila melanogaster; in vivo): 2,03; Faktor der Wirkungssteigerung bei Dimi-tilan (Drosophila melanogaster; in vivo): 1,16; Synergistischer Faktor bei Ripcord ([1]; in vivo): 3,17; Synergistischer Faktor bei Talcord ([1]; in vivo): 10,31; Wirksamkeit in % Substanz +Ripcord [1, 19]: 100%; Wirksamkeit in % Substanz +Talcord [1, 19]: 100%; Wirksamkeit in % Substanz allein [1, 19]: 0%
7 | C=CC(C)(CCC=C(C)C)N1CC1 (centres unmarked) [N-1-Linalyl-aziridin] | 0,42% | 21,7% | 0 | 2,67 | 2,99 | 6,72 | 0 | 97,2% | 65,2% |  |  | 
8 | CC(C)=CCCC(C)CCN1CCCCC1 (centres unmarked) [N-Citronellyl-piperidin] |  |  |  |  | 2,46 | 5,53 |  | 78,8% | 54,8% |  | 1.2 | mortality at 0.001 % (Drosophila melanogaster; Drosophila melanogaster, amine 0,001 %, read-out: Sub-stanz allein): 0%; mortality at 0.005 % (Drosophila melanogaster; [14]): 0%; Substanz + Dime-thoat (Drosophila melanogaster; amine 0,001 % + Dimethoat 0,005 %, Dimethoat : Amin 1 : 0,2): 30,4%; Faktor der Wirkungs-steigerung (Drosophila melanogaster; amine 0,001 %, Dimethoat : Amin 1 : 0,2): 3,53; Substanz + Dime-thoat (Drosophila melanogaster; [15]): 32,9%; Faktor der Wirkungs-steigerung (Drosophila melanogaster; [16]): 3,83
